What was measured:
[1] = system: IL3000 T. congolense (drug sensitive) strain; test: In vitro Alamar Blue 72 hrs drug sensitivity assay for T. congolense; format: cell-based; conditions: Trypanosoma congolense, IL3000 T. congolense bloodstream form, read-out: T. congo Act.
Procedure: In Vitro Alamar Blue 72 Hrs Drug Sensitivity Assay for T. Congolense. Compounds were tested in vitro for chemotherapeutic efficacy against the IL3000 T. congolense (drug sensitive) strain using an Alamar Blue assay. Test compounds were prepared as 10 mg/mL DMSO stocks for each assay run. Compounds were assayed in at least three separate, independent test runs and an 11-point dilution curve was used to determine the IC50 values. Bloodstream form trypanosomes were supported in HMI media containing 20% bovine serum and were incubated with test compounds for 69 hrs at 34° C. in a humidified atmosphere containing 5% CO2. Thereafter, 10 μL of Resazurin dye (12.5 mg in 100 mL of phosphate buffered saline, Sigma-Aldrich, Buchs, Switzerland) were added for an additional 3 hrs. Plates were then read using a fluorescent plate reader (Spectramax, Gemini XS, Bucher Biotec, Basel, Switzerland) using an excitation wavelength of 536 nm and an emission wavelength of 588 nm. Data points were averaged to generate sigmoidal dose-response curves and IC50 values were determined using Softmax Pro 5.2 software.

[2] = system: STIB 719/ILRAD 560 T. vivax (drug sensitive) strain; test: Ex vivo Alamar Blue 48 hrs drug sensitivity assay for T. vivax; format: cell-based; conditions: Trypanosoma vivax, STIB719; STIB 719/ILRAD 560 T. vivax bloodstream form, ex vivo, Alamar Blue, 48 hrs; read-out: T. vivax Act.
Procedure: Ex vivo Alamar Blue48 hrs drug sensitivity assay for T. vivax. Compounds were tested ex vivo for chemotherapeutic efficacy against the STIB 719/ILRAD 560 T. vivax (drug sensitive) strain, using an Alamar Blue assay. Test compounds were prepared as 10 mg/mL DMSO stocks for each assay run. Compounds were assayed in at least three separate, independent test runs and an 11-point dilution curve was used to determine the IC50 values. Bloodstream form trypanosomes were propagated and harvested from a highly parasitaemic mouse (via cardiac puncture) and were incubated with test compounds for 45 hrs at 37° C. in a humidified atmosphere containing 5% CO2, supported in HMI media containing 20% bovine serum. Thereafter, 10 μL of Resazurin dye (12.5 mg in 100 mL of phosphate buffered saline, Sigma-Aldrich, Buchs, Switzerland) were added for an additional 3 hrs. Plates were then read using a fluorescent plate reader (Spectramax, Gemini XS, Bucher Biotec, Basel, Switzerland) using an excitation wavelength of 536 nm and an emission wavelength of 588 nm. Data points were averaged to generate sigmoidal dose-response curves and IC50 values were determined using Softmax Pro 5.2 software.

Compound | IC50 [1] | IC50 [2]
NCC1CCC(n2c(Nc3cc(Cl)ccc3F)nc3cnc(NC4CCOCC4)nc32)CC1 (centres unmarked) [B-17, 9-((1s,4s)-4-(aminomethyl)cyclohexyl)-N8-(5-chloro-2-fluorophenyl)-N2-(tetrahydro-2H-pyran-4-yl)-9H-purine-2,8-diamine] | < 150 nM | < 150 nM
CNC[C@H]1CC[C@@H](n2c(Nc3cccc(Cl)c3)nc3cnc(NC4(C)CCOCC4)nc32)CC1 [A-21, N8-(3-chlorophenyl)-9-((1s,4s)-4-((methylamino)methyl)cyclohexyl)-N2-(4-methyltetrahydro-2H-pyran-4-yl)-9H-purine-2,8-diamine] | < 150 nM | < 150 nM
NC1CCC(n2c(Nc3cccc(Cl)c3)nc3cnc(NCC(F)(F)F)nc32)CC1 (centres unmarked) [B-4, 9-((1r,4r)-4-aminocyclohexyl)-N8-(3-chlorophenyl)-N2-(2,2,2-trifluoroethyl)-9H-purine-2,8-diamine] | 350 to 500 nM | < 150 nM
CC1(Nc2ncc3nc(Nc4cccc(C(F)(F)F)c4)n(C4CCC(CN)CC4)c3n2)CCCC1 (centres unmarked) [A-12, 9-((1s,4s)-4-(aminomethyl)cyclohexyl)-N2-(1-methylcyclopentyl)-N8-(3-(trifluoromethyl)phenyl)-9H-purine-2,8-diamine] | 350 to 500 nM | 150 to 350 nM
CC(C)(C)Nc1ncc2nc(Nc3ccccn3)n(C3CCC(CN)CC3)c2n1 (centres unmarked) [A-6, 9-((1s,4s)-4-(aminomethyl)cyclohexyl)-N2-tert-butyl-N8-(pyridin-2-yl)-9H-purine-2,8-diamine] | 350 to 500 nM | < 150 nM
COC(=O)NC[C@H]1CC[C@@H](n2c(Nc3cccc(Cl)c3)nc3cnc(NC4(C)CCOCC4)nc32)CC1 [A-14, methyl ((1s,4s)-4-(8-(3-chlorophenylamino)-2-(4-methyltetrahydro-2H-pyran-4-ylamino)-9H-purin-9-yl)cyclohexyl)methylcarbamate] | 150 to 350 nM | 350 to 500 nM
CC1(C)CC(Nc2ncc3nc(Nc4cccc(Cl)c4)n([C@H]4CC[C@@H](CN)CC4)c3n2)CCO1 (some centres unmarked) [B-8, 9-((1s,4s)-4-(aminomethyl)cyclohexyl)-N8-(3-chlorophenyl)-N2-(2,2-dimethyltetrahydro-2H-pyran-4-yl)-9H-purine-2,8-diamine] | 150 to 350 nM | < 150 nM
Cc1ccc(Nc2nc3cnc(NC(C)(C)C)nc3n2C2CCC(CN)CC2)cc1 (centres unmarked) [A-18, 9-((1r,4r)-4-(aminomethyl)cyclohexyl)-N2-tert-butyl-N8-p-tolyl-9H-purine-2,8-diamine] | 350 to 500 nM | 150 to 350 nM
CC1(Nc2ncc3nc(Nc4cc(Cl)cc(C(F)(F)F)c4)n(C4CCC(CN)CC4)c3n2)CCC1 (centres unmarked) [A-55, 9-((1s,4s)-4-(aminomethyl)cyclohexyl)-N8-(3-chloro-5-(trifluoromethyl)phenyl)-N2-(1-methylcyclobutyl)-9H-purine-2,8-diamine] | 150 to 350 nM | 350 to 500 nM
CC1(Nc2ncc3nc(Nc4cccc(Cl)c4)n([C@H]4CC[C@@H](CN)CC4)c3n2)CC1 [A-51, 9-((1s,4s)-4-(aminomethyl)cyclohexyl)-N8-(3-chlorophenyl)-N2-(1-methylcyclopropyl)-9H-purine-2,8-diamine] | < 150 nM | < 150 nM
CC(C)(C)Nc1ncc2nc(Nc3ccc(Cl)c(Cl)c3)n(C3CC(N)C3)c2n1 (centres unmarked) [A-39, 9-(3-aminocyclobutyl)-N2-tert-butyl-N8-(3,4-dichlorophenyl)-9H-purine-2,8-diamine] | 350 to 500 nM | 150 to 350 nM
CC(C)(C)Nc1ncc2nc(Nc3cccc(C(F)(F)F)c3)n([C@H]3CC[C@H](N)CC3)c2n1 [A-30, 9-((1r,4r)-4-aminocyclohexyl)-N2-tert-butyl-N8-(3-(trifluoromethyl)phenyl)-9H-purine-2,8-diamine] | < 150 nM | < 150 nM
CC1(Nc2ncc3nc(Nc4cccc(C(F)(F)F)c4)n(C4CCC(C#N)CC4)c3n2)CCOCC1 (centres unmarked) [A-24, (1s,4s)-4-(2-(4-methyltetrahydro-2H-pyran-4-ylamino)-8-(3-(trifluoromethyl)phenylamino)-9H-purin-9-yl)cyclohexanecarbonitrile] | 150 to 350 nM | 150 to 350 nM
NC1CCC(n2c(Nc3cccc(Cl)c3)nc3cnc(NCC4CC4)nc32)CC1 (centres unmarked) [B-3, 9-((1r,4r)-4-aminocyclohexyl)-N8-(3-chlorophenyl)-N2-(cyclopropylmethyl)-9H-purine-2,8-diamine] | 350 to 500 nM | 350 to 500 nM
NCC1CCC(n2c(Nc3cc(C(F)(F)F)ccc3F)nc3cnc(NC4CCOCC4)nc32)CC1 (centres unmarked) [B-16, 9-((1s,4s)-4-(aminomethyl)cyclohexyl)-N8-(2-fluoro-5-(trifluoromethyl)phenyl)-N2-(tetrahydro-2H-pyran-4-yl)-9H-purine-2,8-diamine] | 350 to 500 nM | < 150 nM
OCC1CCC(n2c(Nc3cccc(Cl)c3)nc3cnc(NC4CCOCC4)nc32)CC1 (centres unmarked) [B-6, ((1s,4s)-4-(8-(3-chlorophenylamino)-2-(tetrahydro-2H-pyran-4-ylamino)-9H-purin-9-yl)cyclohexyl)methanol] | 350 to 500 nM | 350 to 500 nM
NCC1CCC(n2c(Nc3cc(Cl)cc(C(F)(F)F)c3)nc3cnc(NC4CCOCC4)nc32)CC1 (centres unmarked) [B-12, 9-((1s,4s)-4-(aminomethyl)cyclohexyl)-N8-(3-chloro-5-(trifluoromethyl)phenyl)-N2-(tetrahydro-2H-pyran-4-yl)-9H-purine-2,8-diamine] | 350 to 500 nM | 350 to 500 nM
CN(C)CC1CCC(n2c(Nc3cccc(Cl)c3F)nc3cnc(NC(C)(C)C)nc32)CC1 (centres unmarked) [A-60, N2-tert-butyl-N8-(3-chloro-2-fluorophenyl)-9-((1s,4s)-4-((dimethylamino)methyl)cyclohexyl)-9H-purine-2,8-diamine] | < 150 nM | < 150 nM
CC(C)(C)Nc1ncc2nc(Nc3cccc(C(F)(F)F)c3)n([C@H]3CC[C@@H](CN)CC3)c2n1 [A-15, 9-((1s,4s)-4-(aminomethyl)cyclohexyl)-N2-tert-butyl-N8-(3-(trifluoromethyl)phenyl)-9H-purine-2,8-diamine] | < 150 nM | < 150 nM
CN(C)c1ncc2nc(Nc3cc(C(F)(F)F)ccc3F)n(C3CCC(CN)CC3)c2n1 (centres unmarked) [B-14, 9-((1s,4s)-4-(aminomethyl)cyclohexyl)-N8-(2-fluoro-5-(trifluoromethyl)phenyl)-N2,N2-dimethyl-9H-purine-2,8-diamine] | 350 to 500 nM | < 150 nM
CC1(Nc2ncc3nc(Nc4cccc(Cl)c4)n([C@H]4CC[C@@H](CO)CC4)c3n2)CCOCC1 [A-19, ((1s,4s)-4-(8-(3-chlorophenylamino)-2-(4-methyltetrahydro-2H-pyran-4-ylamino)-9H-purin-9-yl)cyclohexyl)methanol] | 350 to 500 nM | 150 to 350 nM
CC1(Nc2ncc3nc(Nc4cccc(C(F)(F)F)c4)n(C4CCC(CN)CC4)c3n2)CCC1 (centres unmarked) [A-57, 9-((1s,4s)-4-(aminomethyl)cyclohexyl)-N2-(1-methylcyclobutyl)-N8-(3-(trifluoromethyl)phenyl)-9H-purine-2,8-diamine] | < 150 nM | 
NCC1CCC(n2c(Nc3cccc(Cl)c3F)nc3cnc(NC4CCOCC4)nc32)CC1 (centres unmarked) [B-13, 9-((1s,4s)-4-(aminomethyl)cyclohexyl)-N8-(3-chloro-2-fluorophenyl)-N2-(tetrahydro-2H-pyran-4-yl)-9H-purine-2,8-diamine] | < 150 nM | 

Reference: US10420772B2, “Animal and human anti-trypanosomonal and anti-leishmania agents” (Celgene Corporation, priority 2016, dated 2019)
